Assay results as given in patent publication US6967196B1, “Sulfonamide compounds and uses thereof” (Bristol-Myers Squibb Company, priority 1999, dated 2005).
Like-named read-outs stand apart in the source and are kept apart here.

Test system: amyloid β production in transfected H4 (human neuroglioma) cells stably expressing APP constructs
Assay: In vitro cell-based assay of inhibitors of amyloid β production (ELISA)
Settings: amyloid β in medium by ELISA, read-out: ACTIVITY (IC50, inhibition of amyloid β production)
Procedure, shortened: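 Aβ secreted into the medium was read by sandwich ELISA (monoclonal capture for the Aβ C-terminus, polyclonal detection for the N-terminus) and calibrated on a standard curve. Before this, APP-expressing H4 cells were exposed to compound for ~16 h at an initial 10-100 μM, with actives then retested in dose-response.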

[1] = transfected H4 cells stably expressing APP, approx. 16 h incubation
[2] = transfected H4 cells stably expressing APP, approximately 16 hours incubation
[3] = transfected H4 cells stably expressing APP, approximately 16 hours incubation, Table B
[4] = transfected H4 cells stably expressing APP constructs, approximately 16 hours incubation

Substance | IC50 [1] [nM] | IC50 [2] [nM] | also measured
(2E)-1-N-{3-[2-({[(4-chlorophenyl)sulfonyl]-2,5-difluoroanilino}methyl)phenoxy]propyl}-N-methyl-2-butenamide [Example 783] | 100 to 500 |  | 
(2E)-3-[2-({[(4-chlorophenyl)sulfonyl]anilino}methyl)phenyl]-2-propenoic acid [Example 1035] |  | > 500 | 
(2E)-3-[2-({[(4-chlorophenyl)sulfonyl]anilino}methyl)phenyl]-N-methoxy-N-methyl-2-propenamide [Example 1034] |  | > 500 | 
(2E)-N-{2-[2-(1-{[(4-chlorophenyl)sulfonyl]-2,5-difluoroanilino}ethyl)phenoxy]ethyl}-N-ethyl-2-butenamide [Example 649] | 100 to 500 |  | 
(2E)-N-{4-[2-(1-{[(4-chlorophenyl)sulfonyl]-2,5-difluoroanilino}ethyl)phenoxy]butyl}-N-ethyl-2-butenamide [Example 514] |  |  | IC50 [3]: 100 to 500 nM
(2E)-N-{4-[2-(1-{[(4-chlorophenyl)sulfonyl]-2,5-difluoroanilino}ethyl)phenoxy]butyl}-N-methyl-2-butenamide [Example 495] |  |  | IC50 [3]: 100 to 500 nM
(2R)-2-{[(4-chlorophenyl)sulfonyl]-2,5-difluoroanilino}propanoic acid [Example 1013] |  | > 500 | 
(2R)-2-{[(4-chlorophenyl)sulfonyl]-2,5-difluoroanilino}propyl isonicotinate [Example 1057] |  | > 500 | 
(2R)-2-{[(4-chlorophenyl)sulfonyl]-2,5-difluoroanilino}propyl nicotinate [Example 1058] |  | > 500 | 
(2R, 3R)-2,4-bis[(4-methylbenzoyl)oxy]butanedioic acid compound with 4-chloro-N-(2,5-difluorophenyl)-N-((1R)-1-{2-[3-(1H-imidazol-1- [Example 1049] |  | > 500 | 
(2S)-2-[[2-((1R)-1-{[(4-chlorophenyl)sulfonyl]-2,5-difluoroanilino}ethyl)benzyl](methyl)amino]propanoic acid hydrochloride [Example 659] | 100 to 500 |  | 
(2Z)-N-{3-[2-(1-{[(4-chlorophenyl)sulfonyl]-2,5-difluoroanilino}ethyl)phenoxy]propyl}-3-phenyl-2-propenamide [Example 732] | 100 to 500 |  | 
(2Z)-N-{3-[2-(1-{[(4-chlorophenyl)sulfonyl]-2,5-difluoroanilino}ethyl)phenoxy]propyl}-N-methyl-3-phenyl-2-propenamide [Example 738] | 100 to 500 |  | 
(E)-N-(2,5-dichlorophenyl)-2-phenyl-N-{2-[3-(1-piperidinyl)propoxy]benzyl}ethanesulfonamide hydrochloride [Example 994] |  | > 500 | 
(R)-4-Chloro-N-(2,5-difluorophenyl)-N-[1-[4-fluoro-2-[1-(1,1-dioxo-2-methyl-4-thiomorpholinyl)butanoyl]phenyl]ethyl]benzenesulfonamide [Example 1277] |  |  | IC50 [4]: ≤ 25 nM
(R)-4-Chloro-N-(2,5-difluorophenyl)-N-[1-[4-fluoro-2-[1-(2-methyl-4-thiomorpholinyl)butanoyl]phenyl]ethyl]benzenesulfonamide [Example 1276] |  |  | IC50 [4]: ≤ 25 nM
N-hydroxy-3-(2-{[(phenylsulfonyl)anilino]methyl}phenyl)propanamide [Example 1042] |  | > 500 | 
N-{2-[2-(1-{[(4-chlorophenyl)sulfonyl]-2,5-difluoroanilino}ethyl)phenoxy]ethyl}-2-cyclohexyl-N-methylacetamide [Example 844] |  | 100 to 500 | 
N-{2-[2-(1-{[(4-chlorophenyl)sulfonyl]-2,5-difluoroanilino}ethyl)phenoxy]ethyl}-2-ethyl-N-methylhexanamide [Example 793] | 100 to 500 |  | 
N-{2-[2-(1-{[(4-chlorophenyl)sulfonyl]-2,5-difluoroanilino}ethyl)phenoxy]ethyl}-3-cyclopentyl-N-ethylpropanamide [Example 857] |  | 100 to 500 | 
N-{2-[2-(1-{[(4-chlorophenyl)sulfonyl]-2,5-difluoroanilino}ethyl)phenoxy]ethyl}-3-cyclopentyl-N-methylpropanamide [Example 653] | 100 to 500 |  | 
N-{2-[2-(1-{[(4-chlorophenyl)sulfonyl]-2,5-difluoroanilino}ethyl)phenoxy]ethyl}-N,2-diethylhexanamide [Example 831] |  | 100 to 500 | 
N-{2-[2-(1-{[(4-chlorophenyl)sulfonyl]-2,5-difluoroanilino}ethyl)phenoxy]ethyl}-N-ethyl-1-adamantanecarboxamide [Example 769] | 100 to 500 |  | 

Substance | IC50 [1] [nM] | IC50 [2] [nM] | also measured
N-{2-[2-(1-{[(4-chlorophenyl)sulfonyl]-2,5-difluoroanilino}ethyl)phenoxy]ethyl}-N-ethyl-2-(2-thienyl)acetamide [Example 705] | 100 to 500 |  | 
N-{2-[2-(1-{[(4-chlorophenyl)sulfonyl]-2,5-difluoroanilino}ethyl)phenoxy]ethyl}-N-ethyl-3-methylbutanamide [Example 694] | 100 to 500 |  | 
N-{2-[2-(1-{[(4-chlorophenyl)sulfonyl]-2,5-difluoroanilino}ethyl)phenoxy]ethyl}-N-ethylacrylamide [Example 949] |  | > 500 | 
N-{2-[2-(1-{[(4-chlorophenyl)sulfonyl]-2,5-difluoroanilino}ethyl)phenoxy]ethyl}-N-ethylbutanamide [Example 646] | 100 to 500 |  | 
N-{2-[2-(1-{[(4-chlorophenyl)sulfonyl]-2,5-difluoroanilino}ethyl)phenoxy]ethyl}-N-ethylcyclopentanecarboxamide [Example 721] | 100 to 500 |  | 
N-{2-[2-(1-{[(4-chlorophenyl)sulfonyl]-2,5-difluoroanilino}ethyl)phenoxy]ethyl}-N-ethylpropanamide [Example 504] |  |  | IC50 [3]: 100 to 500 nM
N-{2-[2-(1-{[(4-chlorophenyl)sulfonyl]-2,5-difluoroanilino}ethyl)phenoxy]ethyl}-N-ethyltetradecanamide [Example 928] |  | > 500 | 
N-{2-[2-(1-{[(4-chlorophenyl)sulfonyl]-2,5-difluoroanilino}ethyl)phenoxy]ethyl}-N-methylcyclohexanecarboxamide [Example 511] |  |  | IC50 [3]: 100 to 500 nM
N-{2-[2-(1-{[(4-chlorophenyl)sulfonyl]-2,5-difluoroanilino}ethyl)phenoxy]ethyl}-N-methylpentanamide [Example 664] | 100 to 500 |  | 
N-{2-[2-(1-{[(4-chlorophenyl)sulfonyl]-2,5-difluoroanilino}ethyl)phenoxy]ethyl}-N-methyltetradecanamide [Example 854] |  | 100 to 500 | 
N-{2-[2-(1-{[(4-chlorophenyl)sulfonyl]-2,5-difluoroanilino}ethyl)phenoxy}ethyl}-N-ethyl-3-methyl-2-butenamide [Example 642] | 100 to 500 |  | 
N-{3-[2-(1-{3-[2-(1-{[(4-chlorophenyl)sulfonyl]-2,5-difluoroanilino}ethyl)phenoxy]butyl}-2-cyclohexyl-N-methylacetamide [Example 686] | 100 to 500 |  | 
N-{3-[2-(1-{[(4-chlorophenyl)sulfonyl]-2,5-difluoroanilino}ethyl)phenoxy]butyl}-3-cyclopentyl-N-methylpropanamide [Example 712] | 100 to 500 |  | 
N-{3-[2-(1-{[(4-chlorophenyl)sulfonyl]-2,5-difluoroanilino}ethyl)phenoxy]butyl}-N-ethyl-2-furamide [Example 708] | 100 to 500 |  | 
N-{3-[2-(1-{[(4-chlorophenyl)sulfonyl]-2,5-difluoroanilino}ethyl)phenoxy]ethyl}-N-methyl-2-(trifluoromethyl)benzamide [Example 697] | 100 to 500 |  | 
N-{3-[2-(1-{[(4-chlorophenyl)sulfonyl]-2,5-difluoroanilino}ethyl)phenoxy]ethyl}-N-methyl-3,5-bis(trifluoromethyl)benzamide [Example 931] |  | > 500 | 
N-{3-[2-(1-{[(4-chlorophenyl)sulfonyl]-2,5-difluoroanilino}ethyl)phenoxy]propyl}-2,2-diphenylacetamide [Example 784] | 100 to 500 |  | 
N-{3-[2-(1-{[(4-chlorophenyl)sulfonyl]-2,5-difluoroanilino}ethyl)phenoxy]propyl}-2,3,4,5 tetrafluorobenzamide [Example 863] |  | 100 to 500 | 
N-{3-[2-(1-{[(4-chlorophenyl)sulfonyl]-2,5-difluoroanilino}ethyl)phenoxy]propyl}-2,3,4,5,6-pentafluoro-N-methylbenzamide [Example 828] |  | 100 to 500 | 
N-{3-[2-(1-{[(4-chlorophenyl)sulfonyl]-2,5-difluoroanilino}ethyl)phenoxy]propyl}-2,3,4,5,6-pentafluorobenzamide [Example 742] | 100 to 500 |  | 
N-{3-[2-(1-{[(4-chlorophenyl)sulfonyl]-2,5-difluoroanilino}ethyl)phenoxy]propyl}-2,3,4,5-tetrafluoro-N-methylbenzamide [Example 778] | 100 to 500 |  | 
N-{3-[2-(1-{[(4-chlorophenyl)sulfonyl]-2,5-difluoroanilino}ethyl)phenoxy]propyl}-2,3,4-trifluoro-N-methylbenzamide [Example 670] | 100 to 500 |  | 
N-{3-[2-(1-{[(4-chlorophenyl)sulfonyl]-2,5-difluoroanilino}ethyl)phenoxy]propyl}-2,4,5-trifluoro-N-methylbenzamide [Example 710] | 100 to 500 |  | 
